Reference: US20240245770A1, “COMPOSITIONS AND METHODS FOR TREATING NEUROMUSCULAR DISORDERS” (The Regents of the University of California, priority 2019, published 2024)

Tested on: serum cytokine/chemokine/growth factor/ligands of ALS patient
Assay: Serum Luminex, before and after NAC treatment
Format: in vivo, human
Experimental: (§1) Serum Luminex. Serum from patients were used to determine the levels of cytokine/chemokine/growth factor/ligands secretion using multiplex luminex assay. Scatter plot was prepared using the levels of cytokine/chemokine/growth factor/ligands in serum obtained at different dates from patients as compared to controls.
Serum Luminex. Serum from patients were used to determine the levels of cytokine/chemokine/growth factor/ligands secretion using multiplex luminex assay.
as §1

[1] = JC sera Apr. 30, 2020 (NAC infusion)
[2] = JC sera Jun. 22, 2020 (NAC infusion)
[3] = JC sera Jun. 24, 2020 (NAC infusion)
[4] = JC sera May 7, 2020 (NAC infusion)
[5] = JC sera May 14, 2020 (NAC infusion)
[6] = JC sera May 21, 2020 (NAC infusion)
[7] = JC sera May 28, 2020 (NAC infusion)
[8] = serum of ALS patient after NAC treatment

SMILES: CC(=O)N[C@@H](CS)C(=O)O [NAC, N-Acetyl-Cysteine]
- IL-5 (JC sera Apr. 30, 2020): 2 pg/mL
- IL-7 (JC sera Apr. 30, 2020): 6.25 pg/mL
- IL-8 (JC sera Apr. 30, 2020): 4.28 pg/mL
- IL-21 (JC sera Apr. 30, 2020): 0.86 pg/mL
- IL-23 (JC sera Apr. 30, 2020): 138.55 pg/mL
- MIP-1a (JC sera Apr. 30, 2020): 11.35 pg/mL
- MIP-1b (JC sera Apr. 30, 2020): 17.78 pg/mL
- TNFa (JC sera Apr. 30, 2020): 8.46 pg/mL
- Franktalkine [1]: 35.49 pg/mL
- GM-CSF [1]: 59.71 pg/mL
- IFNg [1]: 9.14 pg/mL
- IL-1b [1]: 1.03 pg/mL
- IL-10 [1]: 5.71 pg/mL
- IL-12p70 [1]: 2.32 pg/mL
- ITAC [1]: 14.07 pg/mL
- MIP-3a [1]: 8.17 pg/mL
- IL-2 (JC sera Jun. 22, 2020): 0.04 pg/mL
- IL-4 (JC sera Jun. 22, 2020): 15.17 pg/mL
- IL-5 (JC sera Jun. 22, 2020): 2.44 pg/mL
- IL-6 (JC sera Jun. 22, 2020): 3.33 pg/mL
- IL-7 (JC sera Jun. 22, 2020): 7.25 pg/mL
- IL-8 (JC sera Jun. 22, 2020): 5.21 pg/mL
- IL-21 (JC sera Jun. 22, 2020): 0.86 pg/mL
- IL-23 (JC sera Jun. 22, 2020): 158.41 pg/mL
- MIP-1a (JC sera Jun. 22, 2020): 12.15 pg/mL
- MIP-1b (JC sera Jun. 22, 2020): 24.21 pg/mL
- TNFa (JC sera Jun. 22, 2020): 9.2 pg/mL
- Franktalkine [2]: 35.49 pg/mL
- GM-CSF [2]: 50.3 pg/mL
- IFNg [2]: 10.42 pg/mL
- IL-1b [2]: 0.91 pg/mL
- IL-10 [2]: 8.54 pg/mL
- IL-12p70 [2]: 2.32 pg/mL
- IL-13 [2]: 5.03 pg/mL
- IL-17A [2]: 6.86 pg/mL
- ITAC [2]: 13.07 pg/mL
- MIP-3a [2]: 10.65 pg/mL
- IL-2 (JC sera Jun. 24, 2020): 0.17 pg/mL
- IL-4 (JC sera Jun. 24, 2020): 10.14 pg/mL
- IL-5 (JC sera Jun. 24, 2020): 2.1 pg/mL
- IL-7 (JC sera Jun. 24, 2020): 5.13 pg/mL
- IL-8 (JC sera Jun. 24, 2020): 4.47 pg/mL
- IL-21 (JC sera Jun. 24, 2020): 0.62 pg/mL
- IL-23 (JC sera Jun. 24, 2020): 106.21 pg/mL
- MIP-1a (JC sera Jun. 24, 2020): 12.15 pg/mL
- MIP-1b (JC sera Jun. 24, 2020): 27.78 pg/mL
- TNFa (JC sera Jun. 24, 2020): 8.82 pg/mL
- Franktalkine [3]: 35.11 pg/mL
- GM-CSF [3]: 111.4 pg/mL
- IFNg [3]: 4.58 pg/mL
- IL-1b [3]: 0.77 pg/mL
- IL-10 [3]: 23.69 pg/mL
- IL-12p70 [3]: 1.64 pg/mL
- IL-13 [3]: 3.95 pg/mL
- IL-17A [3]: 2.46 pg/mL
- ITAC [3]: 10.44 pg/mL
- MIP-3a [3]: 8.55 pg/mL
- IL-2 (JC sera May 7, 2020): 0.21 pg/mL
- IL-4 (JC sera May 7, 2020): 7.5 pg/mL
- IL-5 (JC sera May 7, 2020): 1.77 pg/mL
- IL-6 (JC sera May 7, 2020): 1.37 pg/mL
- IL-7 (JC sera May 7, 2020): 4.06 pg/mL
- IL-8 (JC sera May 7, 2020): 3.39 pg/mL
- IL-21 (JC sera May 7, 2020): 0.62 pg/mL
- IL-23 (JC sera May 7, 2020): 116.26 pg/mL
- MIP-1a (JC sera May 7, 2020): 10.39 pg/mL
- MIP-1b (JC sera May 7, 2020): 16.67 pg/mL
- TNFa (JC sera May 7, 2020): 7.45 pg/mL
- Franktalkine [4]: 33.33 pg/mL
- GM-CSF [4]: 58.44 pg/mL
- IFNg [4]: 4.81 pg/mL
- IL-1b [4]: 0.72 pg/mL
- IL-10 [4]: 6.63 pg/mL
- IL-12p70 [4]: 1.6 pg/mL
- IL-13 [4]: 3.99 pg/mL
- IL-17A [4]: 2.78 pg/mL
- ITAC [4]: 13.07 pg/mL
- MIP-3a [4]: 7.8 pg/mL
- IL-2 (JC sera May 12, 2020): 0 pg/mL
- IL-4 (JC sera May 12, 2020): 10.14 pg/mL
- IL-6 (JC sera May 12, 2020): 1.76 pg/mL
- IL-7 (JC sera May 12, 2020): 5.13 pg/mL
- IL-8 (JC sera May 12, 2020): 4.18 pg/mL
- IL-21 (JC sera May 12, 2020): 0.62 pg/mL
- IL-23 (JC sera May 12, 2020): 92.37 pg/mL
- MIP-1a (JC sera May 12, 2020): 11.8 pg/mL
- MIP-1b (JC sera May 12, 2020): 25.53 pg/mL
- TNFa (JC sera May 12, 2020): 7.14 pg/mL
- IL-2 (JC sera May 14, 2020): 8.16 pg/mL
- IL-4 (JC sera May 14, 2020): 13.73 pg/mL
- IL-5 (JC sera May 14, 2020): 1.72 pg/mL
- IL-6 (JC sera May 14, 2020): 1.07 pg/mL
- IL-7 (JC sera May 14, 2020): 6.39 pg/mL
- IL-8 (JC sera May 14, 2020): 5.32 pg/mL
- IL-21 (JC sera May 14, 2020): 0.56 pg/mL
- IL-23 (JC sera May 14, 2020): 106.21 pg/mL
- MIP-1a (JC sera May 14, 2020): 12.15 pg/mL
- MIP-1b (JC sera May 14, 2020): 19.37 pg/mL
- TNFa (JC sera May 14, 2020): 7.77 pg/mL
- Franktalkine [5]: 31.36 pg/mL
- GM-CSF [5]: 53.64 pg/mL
- IFNg [5]: 4.14 pg/mL
- IL-1b [5]: 0.8 pg/mL
- IL-10 [5]: 4.47 pg/mL
- IL-12p70 [5]: 1.81 pg/mL
- IL-13 [5]: 4.08 pg/mL
- IL-17A [5]: 2.24 pg/mL
- ITAC [5]: 12.13 pg/mL
- MIP-3a [5]: 6.78 pg/mL
- Franktalkine [6]: 32.65 pg/mL
- GM-CSF [6]: 48.19 pg/mL
- IFNg [6]: 5.58 pg/mL
- IL-1b [6]: 0.8 pg/mL
- IL-10 [6]: 3.7 pg/mL
- IL-12p70 [6]: 1.72 pg/mL
- IL-13 [6]: 3.99 pg/mL
- ITAC [6]: 15.13 pg/mL
- MIP-3a [6]: 6.78 pg/mL
- IL-2 (JC sera May 28, 2020): 0.01 pg/mL
- IL-4 (JC sera May 28, 2020): 11.8 pg/mL
- IL-5 (JC sera May 28, 2020): 2.21 pg/mL
- IL-6 (JC sera May 28, 2020): 2.03 pg/mL
- IL-7 (JC sera May 28, 2020): 5.99 pg/mL
- IL-8 (JC sera May 28, 2020): 4.47 pg/mL
- IL-21 (JC sera May 28, 2020): 0.75 pg/mL
- IL-23 (JC sera May 28, 2020): 144.83 pg/mL
- MIP-1a (JC sera May 28, 2020): 11.46 pg/mL
- MIP-1b (JC sera May 28, 2020): 25.53 pg/mL
- TNFa (JC sera May 28, 2020): 8.64 pg/mL
- Franktalkine [7]: 37.04 pg/mL
- GM-CSF [7]: 75.6 pg/mL
- IFNg [7]: 8.94 pg/mL
- IL-1b [7]: 0.87 pg/mL
- IL-10 [7]: 6.63 pg/mL
- IL-12p70 [7]: 2.16 pg/mL
- IL-13 [7]: 4.44 pg/mL
- IL-17A [7]: 5.49 pg/mL
- ITAC [7]: 14.77 pg/mL
- MIP-3a [7]: 8.17 pg/mL
- serum cytokines of ALS patient compared to healthy twin after NAC treatment (serum Luminex, Table 137): only IFN-g and TNF-α remained higher in ALS patient when compared to healthy twin
- change of serum cytokines after NAC treatment (serum from ALS patient, Table 138): Decrease in respective cytokines
- Fractalkine [8]: 39.89
- GCSF [8]: 82.17
- IFNa2 [8]: 22.87
- IFNg [8]: 21.25
- IL-6 [8]: 14.86
- IL-12p40 [8]: 15.96
- IL-12p70 [8]: 9.801
- IL-17a [8]: 14.45
- Rantes [8]: 9578
- TNFa (serum of ALS patient after NAC treatment, in pg/mL): 29.18
